Measured values reported in US20140249295A1, “LIGHT-INDUCIBLE SYSTEM FOR REGULATING PROTEIN STABILITY” (The Board of Trustees Of The Leland Stanford Junior …, priority 2013, published 2014).
Where a SMILES comes first, the peptide text is derived from it. The star is where a group is joined. Cbz = O=C(OCc1ccccc1)*

Legend:
NIH3T3 cells = experiment: Flow cytometry / immunoblot of NIH3T3 cells stably expressing YFP-LOV2 domain fusions, dark vs blue light; type: cell-based; details: 10 μM MG132, blue light 2 hours, FACS analysis
Procedure: Genes encoding the proteins tested as fusions to the BLID domain were cloned by standard techniques in the retroviral pBMN vector encoding an iHcRed-t or iBlasticidin. The ΦNX ecotropic packaging cell line was cultured in DMEM supplemented with 10% heat-inactivated fetal bovine serum, 2 mM glutamine, 100 U/mL penicillin and 100 μg/mL streptomycin. The NIH3T3 cell line was cultured in DMEM supplemented with 10% heat-inactivated donor bovine serum, 2 mM glutamine, 100 U/mL penicillin and 100 μg/mL streptomycin. The ΦNX cells were transfected using standard Lipofectamine 2000 protocols. Viral supernatants were harvested 48 h posttransfection and filtered through a 0.45 μm nylon syringe filter. NIH3T3 cells were incubated with the retroviral supernatants supplemented with 4 μg/mL polybrene for 4-6 h at 37° C. Cells were cultured in growth media for 24 to 36 h to allow for viral integration, then assayed as described.
Twenty-four hours prior to analysis, transduced NIH3T3 cells were plated at 1×10^5 cells per well of a 12-well plate and treated with vehicle or blue light for indicated time points prior to analysis. […] Samples were analyzed at the Stanford Shared FACS Facility with 10,000 events represented.
For immunoblotting, NIH3T3 cells were washed in PBS and lysed on ice in MIPP buffer containing protease inhibitors. Protein concentration was measured by Bradford assay. […]

3T3 cells = details: cited from earlier work

Molecule	effect on light-dependent decrease in fluorescence of YFP-LOV24 (NIH3T3 cells)	fluorescence of YFP with C-terminal degron (3T3 cells)
CC(C)C[C@@H](C=O)NC(=O)[C@H](CC(C)C)NC(=O)[C@H](CC(C)C)NC(=O)OCc1ccccc1 [MG132] (Cbz-Leu-Leu-Leu-aldehyde)	prevents the light-dependent decrease in fluorescence	–
RRRG	–	no fluorescence is observed
